# Experimental data published in patent US20040142993A1, “Inhibitors of HCV NS5B polymerase” (priority 2002, published 2004).
# Where a name gives a salt, the structure may show the parent alone.
# Target: HCV NS5b RNA dependent RNA polymerase (Hepatitis C virus genotype 1a, UniProt P27958)
# Experiment: Inhibition of HCV NS5b RNA dependent RNA polymerase activity (incorporation of 3H labeled GTP, scintillation proximity)
# Format: biochemical
# Details: HCV NS5b polymerase assay; read-out: concentration for 50% inhibition (inhibitory activity, Table 2)
# Experimental: Compounds of the present invention are evaluated for inhibition of HCV NS5b RNA dependent RNA polymerase activity in assays comprised of a suitable buffer (e.g. 20 mM Tris-HCl pH 7.6), primed or unprimed RNA templates, GTP, ATP, CTP, and UTP, MnCl2 or MgCl2, and reducing agent such as 10 mM dithiothreitol or 2-mercaptoethanol. The assay buffer may contain salts such as ammonium acetate, KCl, or NaCl, and nonionic or zwitterionic detergents such as Tween or CHAPS. The incorporation of nucleotides into the complementary RNA strand may be monitored by the incorporation of radiolabeled NTP (e.g. ^3H labeled GTP). Suitable RNA templates for de novo initiation in the presence of 20-50 μM GTP or ATP are the homopolymers poly rC and poly rU, respectively. Heteropolymer RNA templates with 1-3 cytidine (C) bases or 1-3 uridine (U) bases at the 3′ terminus of the template may also be used for de novo initiation. Primed RNA templates such as poly rC primed with oligo rG or oligo dG, and poly rA primed with oligo rU may also be used to detect polymerase activity. The primers may be any length greater than 10 bases. A biotin residue may be added to the 5′ end of the template or the 5′ end of the primer to capture the template and the newly synthesized, complementary strand on avidin coated spheres. One embodiment of this technology consists of a mixture of NS5b polymerase, a poly rC RNA template primed with 5′ biotinylated oligo rG, 20 mM Tris HCl pH 7.6, 100 mM ammonium acetate, 10 mM dithiothreitol, 2 mM CHAPS, 1 mM MgCl2, and 150-200 nM ^3H labeled GTP. Test compounds (inhibitors) may be incorporated in the reaction mixture with up to 10% DMSO. The reaction is run for various times (1-180 minutes) at 22-37° C., and stopped by the addition of 10-140 mM EDTA. Scintillation Proximity Assay avidin-coated beads (Amersham Pharmacia Biotech) are added to capture the ds RNA product; or the reaction mixtures may be transferred to avidin coated Flash Plates (Perkin Elmer Life Sciences). The incorporation of radiolabeled GTP into the complementary strand is measured in 96, 384, or 1536 well plates in scintillation counters such as the Wallac Microbeta and Packard TopCount.
# HCV NS5b RNA dependent RNA polymerase, sequence (P27958 2421-3011): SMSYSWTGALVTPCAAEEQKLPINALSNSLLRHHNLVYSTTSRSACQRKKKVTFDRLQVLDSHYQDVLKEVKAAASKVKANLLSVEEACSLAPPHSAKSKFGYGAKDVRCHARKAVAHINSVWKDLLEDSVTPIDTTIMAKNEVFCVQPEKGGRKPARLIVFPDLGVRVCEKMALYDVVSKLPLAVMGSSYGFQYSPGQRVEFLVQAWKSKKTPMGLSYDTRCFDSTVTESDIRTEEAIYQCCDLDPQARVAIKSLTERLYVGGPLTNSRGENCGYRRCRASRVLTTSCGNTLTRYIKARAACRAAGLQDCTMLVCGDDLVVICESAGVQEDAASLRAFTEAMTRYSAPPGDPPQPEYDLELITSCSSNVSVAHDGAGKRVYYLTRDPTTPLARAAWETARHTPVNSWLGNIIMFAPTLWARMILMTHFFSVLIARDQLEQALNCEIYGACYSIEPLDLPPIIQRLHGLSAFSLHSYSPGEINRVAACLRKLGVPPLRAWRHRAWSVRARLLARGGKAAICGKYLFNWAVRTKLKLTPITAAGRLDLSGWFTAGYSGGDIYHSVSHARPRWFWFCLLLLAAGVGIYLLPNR
row,IC50 [µM],Compound
1,1 to 20,"N#Cc1ccc(Nc2ccccc2Nc2ccccc2C(=O)O)c(C(=O)O)c1 [li, 2-({2-[(2-carboxyphenyl)amino]phenyl}amino)-5-cyanobenzoic acid]"
2,1 to 20,"O=C(O)c1ccccc1Nc1ccc(C(F)(F)F)cc1Nc1ccc(CN2CCCC2)cc1C(=O)O [xxx, 2-{[2-[(2-carboxyphenyl)amino]-5-(trifluoromethyl)phenyl]amino}-5-(pyrrolidin-1-ylmethyl)benzoic acid]"
3,1 to 20,"N#Cc1ccc(Nc2ccc(C(F)(F)F)cc2Nc2ccccc2C(=O)O)c(C(=O)O)c1 [xvi, 2-{[2-[(2-carboxyphenyl)amino]-4-(trifluoromethyl)phenyl]amino}-5-cyanobenzoic acid]"
4,> 20,O=C(O)c1ccccc1Nc1ccccc1Nc1ccccc1C(=O)O [lviii]
5,< 1,"NCc1ccc(Nc2ccc(C(F)(F)F)cc2Nc2ccccc2C(=O)O)c(C(=O)O)c1 [xxiv, 5-(aminomethyl)-2-{[2-[(2-carboxyphenyl)amino]-4-(trifluoromethyl)phenyl]amino}benzoic acid hydrochloride]"
6,< 1,"NCCc1ccc(Nc2ccc(C(F)(F)F)cc2Nc2ccccc2C(=O)O)c(C(=O)O)c1 [xxvii, 5-(2-aminoethyl)-2-{[2-[(2-carboxyphenyl)amino]-4-(trifluoromethyl)phenyl]amino}benzoic acid hydrochloride]"
7,1 to 20,"c1ccc(Nc2ccccc2-c2nnn[nH]2)c(Nc2ccccc2-c2nnn[nH]2)c1 [lv, N,N′-bis[2-(1H-tetrazol-5-yl)phenyl]benzene-1,2-diamine, disodium salt]"
8,> 20,"COc1ccc(Nc2ccccc2Nc2ccccc2C(=O)O)c(C(=O)O)c1 [lx, 2-({2-[(2-carboxyphenyl)amino]phenyl}amino)-5-methoxybenzoic acid]"
9,> 20,"NCc1ccc(Nc2cc(C(F)(F)F)ccc2Oc2ccccc2C(=O)O)c(C(=O)O)c1 [xxv, 5-(aminomethyl)-2-{[2-(2-carboxyphenoxy)-5-(trifluoromethyl)phenyl]amino}benzoic acid hydrochloride]"
10,< 1,"O=C(O)c1ccccc1Nc1ccc(C(F)(F)F)cc1Nc1ccccc1C(=O)O [xxxi, 2-{[2-[(2-carboxyphenyl)amino]-4-(trifluoromethyl)phenyl]amino}benzoic acid]"
11,1 to 20,"Cc1ccc(Nc2ccccc2C(=O)O)c(Nc2ccccc2C(=O)O)c1 [xl, 2-({2-[(2-carboxyphenyl)amino]-4-methylphenyl}amino)benzoic acid]"
12,> 20,"N[C@@H](Cc1ccccc1)C(=O)NCc1ccc(Nc2cc(C(F)(F)F)ccc2Nc2ccccc2C(=O)O)c(C(=O)O)c1 [xviii, N-(3-carboxy-4-{[2-[(2-carboxyphenyl)amino]-5-(trifluoromethyl)phenyl]amino}benzyl)-L-phenylalaninamide chloride]"
13,1 to 20,"O=C(O)c1ccccc1Nc1ccccc1Nc1cc(F)c(F)cc1C(=O)O [lvii, 2-({2-[(2-carboxyphenyl)amino]phenyl}amino)-4,5-difluorobenzoic acid]"
14,1 to 20,"O=C(O)c1ccccc1Nc1cc(C(F)(F)F)ccc1Oc1ccccc1C(=O)O [lxv, 2-{[2-(2-carboxyphenoxy)-5-(trifluoromethyl)phenyl]amino}benzoic acid]"
15,< 1,"NCCc1ccc(Nc2cc(C(F)(F)F)ccc2Nc2ccccc2C(=O)O)c(C(=O)O)c1 [xxxviii, 5-(2-aminoethyl)-2-{[2-[(2-carboxyphenyl)amino]-5-(trifluoromethyl)phenyl]amino}benzoic acid hydrochloride]"
16,> 20,"O=C(O)c1ccccc1Nc1ccccc1Nc1cc(F)ccc1C(=O)O [lix, 2-({2-[(2-carboxyphenyl)amino]phenyl}amino)-4-fluorobenzoic acid]"
17,1 to 20,"O=C(O)c1ccccc1Nc1ccc(F)cc1Nc1ccccc1C(=O)O [lii, 2-({2-[(2-carboxyphenyl)amino]-4-fluorophenyl}amino)benzoic acid]"

row,Compound,IC50 [µM]
1,5-(aminomethyl)-2-{[2-[(2-carboxyphenyl)thio]-5-(trifluoromethyl)phenyl]amino}benzoic acid [xii],1 to 20
